Test results taken from paper PMC5601486, “Identification of 4-phenylquinolin-2(1H)-one as a specific allosteric inhibitor of Akt” (Scientific Reports, 2017).
Where two headings read alike, the source gives them in different places.

Key:
LNCaP cells = assay: MTS cell proliferation assay; assay type: cell-based; settings: 1 day, 40% confluent
Method: (§1) Neuro 2A cells or NIH/3T3 cells (ATCC) were seeded at various confluency in a 96-well plate in 100 µL DMEM containing 5% FBS or 10% FBS with 1% penicillin streptomucin, respectively, at 37 °C in a 5% CO2 and 95% humidity incubator for 18 hr. To each well 1 µL inhibitor with various concentrations or DMSO was added. The final concentrations of the tested inhibitors were 0, 5, 10, 20, 40 and 80 µM for G7 and LY, and 0, 5, 10, 20, 40 and 80 nM for Torin1, based on their respective IC50 values (~µM for G7 and LY and ~ nM for Torin 1). After 24 hr, 20 µL of CellTiter 96® AQueous One Solution Reagent (Promega) were added. The plate was placed in the incubator for 2 h and absorbance at 490 nm was measured with a Synergy HT Microplate Reader (Bio-Tek).
Fig. S8. Effect of G7 on proliferation of LNCaP cells. Cells that were 40% confluent in RPMI-1640 medium containing 10% FBS were treated with inhibitors for 1 day and subjected to MTS assays. *, µM for both G7 and LY and nM for Torin1. Data represent means ± SEM (n=3). G7, 4-phenylquinolin-2(1H)-one, LY, LY294002.

Akt S473 phosphorylation = assay: pS473-Akt HTRF assay; assay type: cell-based, Mouse; settings: Mus musculus, N2a, Neuro 2A cells
Method: Neuro 2A cells were seeded (4,000 cells/well) in 4 µL of DMEM with 0.5% FBS and 1x Penicillin/Streptomycin in white solid bottom tissue-culture treated 1536-well plates (Greiner, 789173-F) with MultiDrop Combi Dispenser (Thermo Scientific). The cells were incubated for 24 h at 37 °C, 5% CO2, 95% humidity. Twenty-three nL of tested compounds were transferred to each well with an automated pin-tool station (Kalypsys). Following incubation for 15 min at 37 °C, 0.5 µL IGF (500 ng/mL of final concentration) was added and incubated for additional 40 min at 37 °C. After the addition of 1.5 µL 4x lysis buffer and 15-min incubation at room temperature (25 °C), 2 µL of HTRF® conjugated antibodies (fluorophore d2 conjugated anti-Akt monoclonal antibody and Europium^3+ cryptate-labeled anti-pS473-Akt monoclonal antibody, obtained from CisBio, 1:80 dilution) were added with BioRAPTR FRD™ (Beckman Coulter). The plates were incubated at room temperature for 20 h. The signal was measured by EnVision Multilabel Plate Reader (PerkinElmer) with excitation at 330 nm, emission at 620 nm (donor) and 665 nm (acceptor). Results were calculated and analyzed in a format of the ratio 665 nm/620 nm multiplied by 10^4.
Relative activity was calculated by normalizing each HTRF signal from each sample well to the mean HTRF signal from the DMSO-only control wells.
The Library of Pharmacologically Active Compounds (LOPAC, 1280 compounds) and the Molecular Library Small Molecular Repository Library (MLSMR, 373,868 compounds) were obtained from Sigma-Aldrich.
Quantitative HTS (qHTS) and curve response class classification
The qHTS screen was performed as described previously1. Each compound was titrated in seven concentrations. The final concentrations of the compounds assayed ranged from 4.9 nM to 76.6 µM. The curve response classifications (CRC), which can be used to depict potency, efficacy and reliability of the data, and to estimate an IC50 value, were determined by a customized software2. […]
Sigma-Aldrich) and the basal response (0% inhibition) was set to the DMSO control.
Efficacy of a compound refers to the highest response normalized to the maximal response of LY. The CRCs were grouped into 4 categories. Class 1 are well-fit and have both upper and lower asymptotes with efficacy greater than 30%
(Class1.1, >80% efficacy; Class 1.2; 30-80% efficacy). Class 2 are incomplete with only one asy mptote (Class 2.1, > 80% efficacy; Class 2.2, 30-80% % efficacy). Class 3 display activity only at the highest concentrations and efficacy >30%. Class 4 are with low efficacy (<30%) or no response and considered inactive3.

Neuro 2A cells = assay: MTS cell proliferation assay; assay type: cell-based, Mouse; settings: 1 day
Method: as §1

Akt = biological target: T1, Akt (Mus musculus, UniProt P31750); assay: Akt activity assay (immunoprecipitated Akt, K-Lisa); assay type: cell-based; settings: LY at 125 µM
T1 construct: subjected to immunoprecipitation using protein G-plus and anti-AKT PH domain (Millipore); endogenous in cells; host or cells: Neuro 2A (mouse neuroblastoma), IGF-stimulated
T1 sequence (P31750 whole entry, the tested form may be a part): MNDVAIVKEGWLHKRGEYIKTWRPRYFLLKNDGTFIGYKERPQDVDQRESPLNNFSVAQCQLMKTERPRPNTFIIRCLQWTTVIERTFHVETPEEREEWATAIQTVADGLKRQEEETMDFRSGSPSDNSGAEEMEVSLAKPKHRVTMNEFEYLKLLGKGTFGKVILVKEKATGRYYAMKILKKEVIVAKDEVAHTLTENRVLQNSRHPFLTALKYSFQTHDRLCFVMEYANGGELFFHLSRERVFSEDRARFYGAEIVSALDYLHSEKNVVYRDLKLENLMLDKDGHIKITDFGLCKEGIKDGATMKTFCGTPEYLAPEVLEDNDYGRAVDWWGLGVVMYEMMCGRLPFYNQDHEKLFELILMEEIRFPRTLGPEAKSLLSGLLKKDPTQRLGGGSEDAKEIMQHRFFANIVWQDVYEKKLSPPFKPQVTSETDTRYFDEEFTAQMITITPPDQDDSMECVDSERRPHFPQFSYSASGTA
Method: After overnight starvation by incubating with serum-free DMEM, Neuro 2A cells were treated with compound G7 at various concentrations for 30 min at room temperature followed by stimulation with IGF (final concentration of 100 ng/mL) for 30 min. Cells were lysed with lysis buffer containing 1% Triton X-100 and protease/phosphatase inhibitors (Cell Signaling Technology) and subjected to immunoprecipitation using protein G-plus and anti-AKT PH domain (Millipore). The activity of the immunopurified Akt was evaluated using a K-Lisa Akt activity kit (Millipore) in accordance with manufacturer’s instructions. The activity was normalized to Akt level in the immunoprecipitates determined by quantitative western blot analysis.

mTORC2 = test system: mTORC2; design: method as in PMID 22614243; settings: cited from earlier work

| Compound | proliferation of LNCaP prostate cancer cells (LNCaP cells) | IC50 (Akt S473 phosphorylation; 384-well format, read-out: IC50) | IC50 (Akt S473 phosphorylation; 1536-well, inhibitor 15 min before IGF, read-out: apparent IC50) | proliferation of Neuro 2A cells (Neuro 2A cells) | IC50 (Akt S473 phosphorylation; inhibitor 15 min before IGF, read-out: IC50) | inhibition at 125 µM (Akt) | effect on mTORC2 activity (mTORC2) |
| --- | --- | --- | --- | --- | --- | --- | --- |
| CCC(=O)N1CCN(c2ccc(-n3c(=O)ccc4cnc5ccc(-c6cnc7ccccc7c6)cc5c43)cc2C(F)(F)F)CC1 [Torin 1, 1-(4-(4-Propionylpiperazin-1-yl)-3-(trifluoromethyl)phenyl)-9-(quinolin-3-yl)benzo[h][1,6]naphthyridin-2(1H)-one] | inhibited the proliferation | 20 nM | ~20 nM | inhibited the proliferation | – | – | – |
| O=c1cc(N2CCOCC2)oc2c(-c3ccccc3)cccc12 [LY294002, 2-(4-morpholinyl)-8-phenyl-4H-1-benzopyran-4-one] | inhibited the proliferation | – | – | inhibited the proliferation | 25000 nM | ~90% | – |
| NC1(c2ccc(-c3nc4ccn5c(=O)[nH]nc5c4cc3-c3ccccc3)cc2)CCC1 [MK-2206] | – | – | – | – | – | – | decrease mTORC2 activity |
